In brackets after ≈: the same amount, converted by molar mass.
Columns and labels:
E.faecalis [1] = experiment: In vitro activity against selected species (MIC50, MIC90, range); type: cell-based; settings: Enterococcus faecalis, medium IsoB
Escherichia coli 25922 = experiment: Efficacy against systemic infections (septicemia) in mice; type: in vivo; settings: 96 h, survival day 4
Description: (§1) Septicemia was induced in outbred Swiss albino mice (Jbm MoRo [specific pathogen free]; weight 16 to 20 g, Biomedical Research Laboratories, Füllinsdorf, Switzerland). Mice were infected by intraperitoneal injection of diluted overnight cultures of the test organisms. Bacterial challenge doses were 4-10 times the number of organisms required to kill 50% of untreated animals within 48 h. The test compounds were administered p.o. or s.c. 1 and 3 h after the bacterial challenge. To treat the infection with Pseudomonas aeruginosa BA an additional dose was given 5 h after challenge. Control and treatment groups at each dose were composed of five mice each. The 50% effective dose (ED50, in milligrams per kilogram) was calculated by probit analysis as described by Finney (Finney, D.J. 1978, Statistical method in biological assay, 3rd ed. Charles Griffin & Co., Ltd., London), from the survival rates on day 4 after infection.

S.aureus Smith = experiment: as above; type: in vivo; settings: Staphylococcus aureus, 96 h, sc 1 and 3 h after challenge, survival day 4
Description: as §1

M.catarrhalis = experiment: In vitro activity against selected species (MIC50, MIC90, range); type: cell-based; settings: Moraxella catarrhalis, medium IsoB
E.faecalis 6 = experiment: Antibacterial spectrum (MIC), agar dilution; type: cell-based; settings: Enterococcus faecalis, read-out: MIC
Description: (§2) In vitro activity was determined by minimum inhibitory concentration in a microorganism spectum by the agar dilution method in Mueller Hinton agar.

E.cloacae 908R = experiment: Antibacterial spectrum (MIC), agar dilution; type: cell-based; settings: Enterobacter cloacae, read-out: MIC
Description: as §2

P.aeruginosa 27853 = experiment: Antibacterial spectrum (MIC), agar dilution; type: cell-based; settings: Pseudomonas aeruginosa, read-out: MIC
Description: as §2

Acinetobacter sp.51-156 = experiment: Antibacterial spectrum (MIC), agar dilution; type: cell-based; settings: SP.51156, read-out: MIC
Description: as §2

S.aureus 734 MRSA = experiment: Antibacterial spectrum (MIC), agar dilution; type: cell-based; settings: Staphylococcus aureus, read-out: MIC
Description: as §2

S.viridans group 016 = experiment: Antibacterial spectrum (MIC), agar dilution; type: cell-based; settings: Streptococcus viridans, read-out: MIC
Description: as §2

X.maltophilia 1AC739 = experiment: Antibacterial spectrum (MIC), agar dilution; type: cell-based; settings: Stenotrophomonas maltophilia, read-out: MIC
Description: as §2

M.morganii 6H-137 = experiment: Antibacterial spectrum (MIC), agar dilution; type: cell-based; settings: Morganella morganii, 6H137, read-out: MIC
Description: as §2

P.vulgaris 1028 = experiment: Antibacterial spectrum (MIC), agar dilution; type: cell-based; settings: Proteus vulgaris, read-out: MIC
Description: as §2

E.coli 25922 = experiment: Antibacterial spectrum (MIC), agar dilution; type: cell-based; settings: Escherichia coli, read-out: MIC
Description: as §2

K.pneumoniae 418 = experiment: Antibacterial spectrum (MIC), agar dilution; type: cell-based; settings: Klebsiella pneumoniae, read-out: MIC
Description: as §2

S.pneumoniae Q19 = experiment: Antibacterial spectrum (MIC), agar dilution; type: cell-based; settings: Streptococcus pneumoniae, read-out: MIC
Description: as §2

S.aureus 6538 = experiment: Antibacterial spectrum (MIC), agar dilution; type: cell-based; settings: Staphylococcus aureus, read-out: MIC
Description: as §2

S.marcescens 69438 = experiment: Antibacterial spectrum (MIC), agar dilution; type: cell-based; settings: Serratia marcescens, read-out: MIC
Description: as §2

C.freundii 902 = experiment: Antibacterial spectrum (MIC), agar dilution; type: cell-based; settings: Citrobacter freundii, read-out: MIC
Description: as §2

N.meningitidis 69480 = experiment: Antibacterial spectrum (MIC), agar dilution; type: cell-based; settings: Neisseria meningitidis, read-out: MIC
Description: as §2

S.agalactiae QK44 = experiment: Antibacterial spectrum (MIC), agar dilution; type: cell-based; settings: Streptococcus agalactiae, read-out: MIC
Description: as §2

S.pyogenes B15 = experiment: Antibacterial spectrum (MIC), agar dilution; type: cell-based; settings: Streptococcus pyogenes, read-out: MIC
Description: as §2

E.cloacae 908SSi = experiment: Antibacterial spectrum (MIC), agar dilution; type: cell-based; settings: Enterobacter cloacae, read-out: MIC
Description: as §2

M.catarrhalis RA21 = experiment: Antibacterial spectrum (MIC), agar dilution; type: cell-based; settings: Moraxella catarrhalis, read-out: MIC
Description: as §2

H.influenzae 1 = experiment: Antibacterial spectrum (MIC), agar dilution; type: cell-based; settings: Haemophilus influenzae, read-out: MIC
Description: as §2

C.freundii 43 = experiment: Antibacterial spectrum (MIC), agar dilution; type: cell-based; settings: Citrobacter freundii, read-out: MIC
Description: as §2

P.mirabilis 2117 = experiment: Antibacterial spectrum (MIC), agar dilution; type: cell-based; settings: Proteus mirabilis, read-out: MIC
Description: as §2

E.faecium = experiment: In vitro activity against selected species (MIC50, range); type: cell-based; settings: Enterococcus faecium, medium MHA; for MIC: MIC range
Description: as §2

S.viridans group = experiment: In vitro activity against selected species (MIC50, MIC90, range); type: cell-based; settings: Streptococcus viridans
S.pneumoniae PEN-R = experiment: as above; type: cell-based; settings: Streptococcus pneumoniae; for MIC: MIC range
S.aureus MRSA = experiment: as above; type: cell-based; settings: Staphylococcus aureus, medium MHA (Mueller Hinton Agar) +NaCl; for MIC: MIC range
Description: as §2

E.faecalis [2] = experiment: as above; type: cell-based; settings: Enterococcus faecalis, medium MHA; for MIC: MIC range
Description: as §2

S.aureus MSSA = experiment: as above; type: cell-based; settings: Staphylococcus aureus, medium MHB (Mueller Hinton Broth); for MIC: MIC range
L.monocytogenes BK23 = experiment: Antibacterial spectrum (MIC), agar dilution; type: cell-based; settings: Listeria monocytogenes, read-out: MIC
Description: as §2

[3] = Escherichia coli, E.coli 25922, sc 1 and 3 h after challenge
[4] = medium IsoB (Isosensitest Broth)

## Nc1nc(/C(=N/O)C(=O)N[C@@H]2C(=O)N3C(C(=O)O)=C(/C=C4\CCN(C5CC5)C4=O)CS[C@H]23)cs1 [D, [6R-[3(E),6α,7β(Z)]]-7-[[(2-Amino-4-thiazolyl)(hydroxyimino)-acetyl]amino] -3-[[1-cyclopropyl-2-oxo-3-pyrrolidinylidene]-methyl)-8-oxo-5-thia-1-azabicyclo[4.2.0]-oct-2-ene-2-carboxylic acid]
E.faecalis [1]; MIC range
  MIC: 0.25 to 2 µg/mL (≈ 0.495 to 3.96 µM)
E.faecalis [1]
  MIC50: 1 µg/mL (≈ 1.98 µM)
  MIC90: 2 µg/mL (≈ 3.96 µM)
Escherichia coli 25922; Escherichia coli 25922, po (orally) 1 and 3 h after challenge
  ED50: 3 mg/kg
Escherichia coli 25922; [3]
  ED50: ≤ 0.1 mg/kg
S.aureus Smith
  ED50: < 1 mg/kg
M.catarrhalis; MIC range
  MIC: 1 to 32 µg/mL (≈ 1.98 to 63.4 µM)
M.catarrhalis
  MIC50: 4 µg/mL (≈ 7.93 µM)
  MIC90: 16 µg/mL (≈ 31.7 µM)
E.faecalis 6
  MIC: 1 µg/mL (≈ 1.98 µM)
E.cloacae 908R
  MIC: 8 µg/mL (≈ 15.9 µM)
P.aeruginosa 27853
  MIC: 8 µg/mL (≈ 15.9 µM)
Acinetobacter sp.51-156
  MIC: 16 µg/mL (≈ 31.7 µM)
S.aureus 734 MRSA
  MIC: 16 µg/mL (≈ 31.7 µM)
S.viridans group 016
  MIC: 1 µg/mL (≈ 1.98 µM)
X.maltophilia 1AC739
  MIC: > 32 µg/mL
M.morganii 6H-137
  MIC: ≤ 0.06 µg/mL
P.vulgaris 1028
  MIC: 1 µg/mL (≈ 1.98 µM)
E.coli 25922
  MIC: ≤ 0.06 µg/mL
K.pneumoniae 418
  MIC: ≤ 0.06 µg/mL
S.pneumoniae Q19
  MIC: ≤ 0.06 µg/mL
S.aureus 6538
  MIC: 0.5 µg/mL (≈ 0.991 µM)
S.marcescens 69438
  MIC: 0.5 µg/mL (≈ 0.991 µM)
C.freundii 902
  MIC: ≤ 0.06 µg/mL
N.meningitidis 69480
  MIC: ≤ 0.06 µg/mL
S.agalactiae QK44
  MIC: 0.25 µg/mL (≈ 0.495 µM)
S.pyogenes B15
  MIC: ≤ 0.06 µg/mL
E.cloacae 908SSi
  MIC: 0.12 µg/mL (≈ 0.238 µM)
M.catarrhalis RA21
  MIC: 8 µg/mL (≈ 15.9 µM)
H.influenzae 1
  MIC: 0.25 µg/mL (≈ 0.495 µM)
C.freundii 43
  MIC: 2 µg/mL (≈ 3.96 µM)
P.mirabilis 2117
  MIC: ≤ 0.06 µg/mL
E.faecium
  MIC: 1 to 32 µg/mL (≈ 1.98 to 63.4 µM)
  MIC50: 4 µg/mL (≈ 7.93 µM)
S.viridans group
  MIC50: 2 µg/mL (≈ 3.96 µM)
  MIC90: 2 µg/mL (≈ 3.96 µM)
S.viridans group; MIC range
  MIC: 0.12 to 8 µg/mL (≈ 0.238 to 15.9 µM)
S.pneumoniae PEN-R; [4]
  MIC: 0.12 to 0.5 µg/mL (≈ 0.238 to 0.991 µM)
  MIC50: 0.25 µg/mL (≈ 0.495 µM)
  MIC90: 0.5 µg/mL (≈ 0.991 µM)
S.pneumoniae PEN-R; medium IsoB + 20% serum
  MIC: 0.12 to 0.5 µg/mL
  MIC50: 0.5 µg/mL
S.aureus MRSA
  MIC: 16 to 32 µg/mL (≈ 31.7 to 63.4 µM)
  MIC50: 16 µg/mL (≈ 31.7 µM)
  MIC90: 16 µg/mL (≈ 31.7 µM)
E.faecalis [2]
  MIC: 1 to 2 µg/mL (≈ 1.98 to 3.96 µM)
  MIC50: 1 µg/mL (≈ 1.98 µM)
  MIC90: 2 µg/mL (≈ 3.96 µM)
S.aureus MSSA
  MIC: 0.5 to 1 µg/mL (≈ 0.991 to 1.98 µM)
  MIC50: 1 µg/mL (≈ 1.98 µM)
  MIC90: 1 µg/mL (≈ 1.98 µM)

## Nc1nc(/C(=N/O)C(=O)N[C@@H]2C(=O)N3C(C(=O)O)=C(/C=C4\CCN(CCF)C4=O)CS[C@H]23)cs1 [F, [6R-[3(E),6α,7β(Z)]]-7-[[(2-Amino-4-thiazolyl)(hydroxyimino)-acetyl]amino] -3-[[1-(2-fluoroethyl)-2-oxo-3-pyrrolidinylidene]methyl] -8-oxo-5-this-1-azabicyclo[4.2.0]-oct-2-ene-2-carboxylic acid]
Escherichia coli 25922; [3]
  ED50: < 0.1 mg/kg
S.aureus Smith
  ED50: < 1 mg/kg
E.faecalis 6
  MIC: 1 µg/mL (≈ 1.96 µM)
E.cloacae 908R
  MIC: 16 µg/mL (≈ 31.3 µM)
P.aeruginosa 27853
  MIC: 32 µg/mL (≈ 62.7 µM)
Acinetobacter sp.51-156
  MIC: 16 µg/mL (≈ 31.3 µM)
S.aureus 734 MRSA
  MIC: 8 µg/mL (≈ 15.7 µM)
S.viridans group 016
  MIC: 0.5 µg/mL (≈ 0.979 µM)
X.maltophilia 1AC739
  MIC: > 32 µg/mL
M.morganii 6H-137
  MIC: ≤ 0.06 µg/mL
P.vulgaris 1028
  MIC: 2 µg/mL (≈ 3.92 µM)
E.coli 25922
  MIC: ≤ 0.06 µg/mL
K.pneumoniae 418
  MIC: ≤ 0.06 µg/mL
S.pneumoniae Q19
  MIC: ≤ 0.06 µg/mL
S.aureus 6538
  MIC: 0.5 µg/mL (≈ 0.979 µM)
S.marcescens 69438
  MIC: 0.5 µg/mL (≈ 0.979 µM)
C.freundii 902
  MIC: 0.12 µg/mL (≈ 0.235 µM)
N.meningitidis 69480
  MIC: ≤ 0.06 µg/mL
S.agalactiae QK44
  MIC: 0.12 µg/mL (≈ 0.235 µM)
S.pyogenes B15
  MIC: ≤ 0.06 µg/mL
E.cloacae 908SSi
  MIC: 0.12 µg/mL (≈ 0.235 µM)
M.catarrhalis RA21
  MIC: 8 µg/mL (≈ 15.7 µM)
H.influenzae 1
  MIC: 0.12 µg/mL (≈ 0.235 µM)
C.freundii 43
  MIC: 4 µg/mL (≈ 7.84 µM)
L.monocytogenes BK23
  MIC: 2 µg/mL (≈ 3.92 µM)
P.mirabilis 2117
  MIC: ≤ 0.06 µg/mL
E.faecium
  MIC: 1 to 16 µg/mL (≈ 1.96 to 31.3 µM)
  MIC50: 2 µg/mL (≈ 3.92 µM)
S.pneumoniae PEN-R; medium IsoB + 20% serum
  MIC: 0.12 to 0.5 µg/mL
  MIC50: 0.5 µg/mL
S.aureus MRSA
  MIC: 8 to 16 µg/mL (≈ 15.7 to 31.3 µM)
  MIC50: 8 µg/mL (≈ 15.7 µM)
  MIC90: 8 µg/mL (≈ 15.7 µM)
E.faecalis [2]
  MIC: 0.5 to 2 µg/mL (≈ 0.979 to 3.92 µM)
  MIC50: 1 µg/mL (≈ 1.96 µM)
  MIC90: 2 µg/mL (≈ 3.92 µM)
S.aureus MSSA
  MIC: 0.5 to 1 µg/mL (≈ 0.979 to 1.96 µM)
  MIC50: 0.5 µg/mL (≈ 0.979 µM)
  MIC90: 1 µg/mL (≈ 1.96 µM)

From patent EP0620225B1, “Cephalosporin derivatives” (Basilea Pharmaceutica AG, priority 1993, dated 1994)
